Data taken from patent US9045525B2, “Amyloid β-protein-specific production-inhibiting polypeptide” (THE DOSHISHA, priority 2012, dated 2015).
Peptide text beside a SMILES is read from it.

Columns and labels:
[1] = molecular target: γ-secretase against βCTF (C99-FLAG) (Homo sapiens, UniProt P05067); experiment: γ-Secretase activity inhibition experiment in vitro, C99-FLAG substrate; assay type: biochemical; settings: polypeptide 50 μM, 4 hours, 37° C., Western blotting
Protocol: A polypeptide having βCTF (C99-FLAG: SEQ ID NO: 16) and mouse-derived Notch protein having a FLAG peptide at the C-terminal side (modification of NCBI Accession No. Q01705.2; SEQ ID NO: 17; hereunder referred to as “Notch”) shown in FIG. 2(A) were each made into a solution having a final concentration of 50 nM.
To these solutions, 9-7 polypeptide, 6-5 polypeptide, #1 polypeptide, #2 polypeptide, #3 polypeptide, and #4 polypeptide were added in such a manner that the final concentrations were 50 μM, followed by reacting with 50 μL of CHAPSO-solubilized membrane fraction (γ-secretase-containing fraction) for 4 hours. The reaction temperature was 37° C. As a negative control experiment, DMSO was used in place of the six types of polypeptides described above.
Each sample after completion of the reaction was measured in the following manner. As shown in FIG. 2(A), a sample using C99-FLAG was subjected to Western blotting using a monoclonal antibody (82E-1) that specifically recognizes the N terminal of C99-FLAG, and the amount of Aβ40 protein produced by the cleavarage by γ-secretase was measured. In contrast, the reaction sample using Notch-FLAG was subjected to Western blotting using an anti-FLAG monoclonal antibody, and the amount of NICD produced to the separete by γ-secretase was also measured. FIG. 2(B) and FIG. 2(C) show the results.
An experiment was conducted in the same manner as in Experimental Example 1 described above, except that only #1 polypeptide was used and the amount of #1 polypeptide was selected so that the final concentrations were 0.5, 1, 5, 10, 20, and 50 μM.
An experiment was conducted in the same manner as in Experimental Example 1 described above, except that S4 polypeptide was used as the polypeptide, and each addition amount was set in such a manner that the final concentrations were 1, 5, 10, 20, and 50 μM. In this Experimental Example, #4 polypeptide was added in such a manner that the final result was 50 μM.

[2] = tested on: CHO-K1 cells (7WD10 cells) that stably expressed APP protein; experiment: Aβ protein production inhibition experiment in 7WD10 cells (sAPPβ, βCTF, Aβ); assay type: cell-based; settings: polypeptide 1, 5, 10, 20, and 50 μM
Protocol: An experiment was conducted wherein #1, #2, and #4 polypeptides were reacted with CHO-K1 cells (7WD10 cells) that stably expressed APP protein and transiently expressed Notch to confirm the production of Aβ protein and cleavage of Notch protein.

γ-secretase against βCTF (C99-FLAG), sequence (P05067 with tags, fused parts or gaps): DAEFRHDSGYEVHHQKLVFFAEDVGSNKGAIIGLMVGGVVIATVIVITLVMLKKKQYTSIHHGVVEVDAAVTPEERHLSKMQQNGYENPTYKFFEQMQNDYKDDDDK

SMILES: CC[C@H](C)[C@H](NC(=O)[C@H](CC(=O)O)NC(=O)[C@@H](NC(=O)[C@@H](NC(=O)[C@H](CS)NC(=O)[C@H](Cc1ccc(O)cc1)NC(=O)[C@H](CS)NC(=O)[C@H](CC(=O)O)NC(=O)[C@H](CS)NC(=O)[C@@H](NC(=O)[C@@H](NC(=O)[C@H](CC(C)C)NC(=O)[C@H](Cc1c[nH]cn1)NC(=O)[C@H](CCSC)NC(C)=O)C(C)C)[C@@H](C)CC)[C@@H](C)O)[C@@H](C)O)C(=O)N[C@@H](CS)C(=O)N[C@@H](Cc1ccc(O)cc1)C(=O)N[C@@H](CS)C(=O)N[C@@H](Cc1ccc(O)cc1)C(=O)N[C@@H](CO)C(=O)N[C@@H](CS)C(=O)N[C@H](C(=O)N1CCC[C@H]1C(=O)N[C@@H](CC(N)=O)C(N)=O)[C@@H](C)O [#4] (Ac-MHLVICDCYCTTDICYCYSCTPN-NH2)
- cleavage activity of γ-secretase against βCTF (Aβ40 from C99-FLAG) [1]: inhibited more cleavage activity of γ-secretase against βCTF
- Aβ protein in the cell culture medium (released Aβ) [2]: decreased depending on the concentration
- Aβ protein in the cell lysate (intracellular Aβ) [2]: no longer present in a manner dependent on the final concentration
- sAPP in the cell lysate [2]: no longer present in a manner dependent on the final concentration
- βCTF (C99) in the cell lysate [2]: no longer present in a manner dependent on the final concentration
